From patent US20090099195A1 (ASTRAZENECA AB, priority 2007, published 2009)

How the values were obtained:
[1] = target: T1, hP2X3 (human Purinergic P2X receptors subtype 3), clone B (Homo sapiens, UniProt P56373); experiment: hP2X3 FLIPR calcium (Fluo-4) antagonist assay, clone B; details: Human P2X3 FLIPR Clone B IC50 (nM), RLE cells expressing hP2X3 clone B (NM_002559); agonist 500 nM α,β-methylene-ATP
T1 sequence (P56373 1-397): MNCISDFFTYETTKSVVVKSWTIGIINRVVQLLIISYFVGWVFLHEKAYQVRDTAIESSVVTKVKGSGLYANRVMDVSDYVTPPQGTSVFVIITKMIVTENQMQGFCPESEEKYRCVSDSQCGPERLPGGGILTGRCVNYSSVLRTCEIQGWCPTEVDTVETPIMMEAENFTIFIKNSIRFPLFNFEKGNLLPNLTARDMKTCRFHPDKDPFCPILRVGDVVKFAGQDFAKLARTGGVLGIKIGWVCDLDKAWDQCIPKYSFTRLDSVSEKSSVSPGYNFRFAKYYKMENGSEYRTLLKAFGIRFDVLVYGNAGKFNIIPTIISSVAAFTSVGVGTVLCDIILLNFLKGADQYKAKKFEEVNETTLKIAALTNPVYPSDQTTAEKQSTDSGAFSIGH

[2] = target: T2, rat P2X2/3 (rat P2X3 co-expressed with rat P2X2) (Rattus norvegicus, UniProt P49653+P49654); experiment: rat P2X2/3 FLIPR calcium (Fluo-4) antagonist assay; details: Rat P2X2/3 FLIPR Mean IC50 (nM), HEK-TREX cells, tetracycline-induced rat P2X3 with constitutive rat P2X2; agonist 500 nM α,β-methylene-ATP
T2 sequence (P49654 1-397): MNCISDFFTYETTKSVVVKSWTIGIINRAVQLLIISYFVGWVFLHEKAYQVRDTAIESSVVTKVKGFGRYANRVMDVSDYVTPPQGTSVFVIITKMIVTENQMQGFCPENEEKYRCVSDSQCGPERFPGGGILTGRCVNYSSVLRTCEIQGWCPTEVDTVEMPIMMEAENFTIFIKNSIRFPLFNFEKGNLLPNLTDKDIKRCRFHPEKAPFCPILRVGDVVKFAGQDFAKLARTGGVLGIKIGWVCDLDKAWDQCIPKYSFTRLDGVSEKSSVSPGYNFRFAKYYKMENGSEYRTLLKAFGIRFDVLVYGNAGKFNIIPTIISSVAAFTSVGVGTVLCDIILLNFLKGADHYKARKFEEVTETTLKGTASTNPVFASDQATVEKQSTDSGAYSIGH
T2 sequence (P49653 1-472): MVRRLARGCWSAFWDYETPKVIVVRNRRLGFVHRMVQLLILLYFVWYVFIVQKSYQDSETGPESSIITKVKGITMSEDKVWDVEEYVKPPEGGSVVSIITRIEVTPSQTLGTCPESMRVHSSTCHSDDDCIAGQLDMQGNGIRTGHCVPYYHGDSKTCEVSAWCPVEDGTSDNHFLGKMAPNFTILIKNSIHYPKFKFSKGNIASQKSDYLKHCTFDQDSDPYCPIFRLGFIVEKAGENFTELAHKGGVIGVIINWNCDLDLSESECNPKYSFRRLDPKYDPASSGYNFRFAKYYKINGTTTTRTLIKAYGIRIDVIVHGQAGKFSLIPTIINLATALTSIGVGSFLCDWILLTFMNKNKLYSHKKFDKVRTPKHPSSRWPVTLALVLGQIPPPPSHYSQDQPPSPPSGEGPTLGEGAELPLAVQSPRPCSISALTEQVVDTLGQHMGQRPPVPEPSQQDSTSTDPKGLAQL
Experimental: (§1) The assay used a calcium indicator dye (Fluo-4) that emits fluorescence, the intensity of which is related to the concentration of calcium that entered the cell when P2X3 was activated and the channel opened. Activation of hP2X3 or rat P2X3 and rat P2X2/3 (from the coexpression of rat P2X3 and rat P2×2) is elicited the by P2X3 agonist α,β methylene-ATP (Sigma M6517), and the resulting fluorescence is measured with a FLIPR II™ instrument (Molecular Devices). Compounds are tested for their ability to inhibit the agonist-induced fluorescent signal.
(§2) For the rat P2X2/3 HEK-TREX cells, induction of the rat P2X3 expression is used to generate the rat P2X2/3 channels in HEK-TREX cells and performed by addition of 1 μg/mL tetracycline (Invitrogen) 24 h prior to compounds testing to the HEK-TREX expressing the rat P2X2 constitutively. On the day of the experiment, the cells and test compounds are prepared as follows. […] After preparing the compounds, the medium is removed from the cell plates by inversion. A loading solution of 30 μL assay buffer containing 4 μM of the calcium indicator dye FLUO-4 AM (Molecular Probes F14202) is added to each well using a Multidrop (Labsystems). […] The incubation is terminated by washing the cells four times in assay buffer using a Skatron Embla (Molecular Devices), and 25 μL of assay buffer was left in each well. Cell plates are then transferred to the FLIPR. Experiments are initiated by measuring a baseline fluorescence reading for 10 seconds, followed by the addition of 12.5 μL of cpds and data sampling for a total 280 seconds. The experiments are terminated by addition of 12.5 μL of a reference agonist (500 nM α,β-methylene-ATP) or buffer, producing a final assay volume of 50 μL followed by data sampling for an additional 280 seconds.
(§3) In P2X3 antagonist experiments (human and rat assays) data are analysed as normalised maximal peak fluorescence monitored following agonist addition and calculated as percent of relative fluorescent counts from control agonist. The dose-response antagonist inhibition curves are analyzed in a 4-parameter sigmoidal fit using a non-linear curve-fitting program (XLfit version 5.0.6, ID Business Solutions Limited, Guildford, UK).

[3] = target: T3, hP2X3 (human Purinergic P2X receptors subtype 3), clone A (Homo sapiens, UniProt P56373); experiment: hP2X3 FLIPR calcium (Fluo-4) antagonist assay, clone A; details: Human P2X3 FLIPR Clone A Mean IC50 (nM), RLE cells expressing hP2X3 clone A (AB016608); agonist 500 nM α,β-methylene-ATP
T3 sequence (P56373 1-397): T1 sequence (P56373 1-397)
Experimental: as §1, §2, §3

IC50 [1] [nM] | IC50 [2] [nM] | IC50 [3] [nM] | SMILES
140 | 1920 | 86.2 | CC(C)N1Cc2c(NC(C)(C)Cc3ccc(Cl)cc3)nc(N3CCN(C)C(=O)C3)nc2C1=O [Example 69, 4-{[2-(4-chlorophenyl)-1,1-dimethylethyl]amino}-6-isopropyl-2-(4-methyl-3-oxopiperazin-1-yl)-5,6-dihydro-7H-pyrrolo[3,4-d]pyrimidin-7-one]
290 | 60700 | – | COc1cc(C(F)(F)F)ccc1CNc1nc(N2CCN(C(C)=O)CC2)nc2c1CN(C(C)C)C2=O [Example 225, 2-(4-acetylpiperazin-1-yl)-6-isopropyl-4-(2-methoxy-4-(trifluoromethyl)benzylamino)-5H-pyrrolo[3,4-d]pyrimidin-7(6H)-one]
65 | 10400 | – | CC(=O)N1CCN(c2nc(NCc3ccc4nc(C)ccc4c3)c3c(n2)C(=O)N(C(C)C)C3)CC1 [Example 242, 2-(4-acetylpiperazin-1-yl)-6-isopropyl-4-((2-methylquinolin-6-yl)methylamino)-5H-pyrrolo[3,4-d]pyrimidin-7(6H)-one]
57 | 10300 | – | CC(=O)N1CCN(c2nc3c(c(N4CCC[C@@H]4Cc4ccccc4)n2)CN(C(C)C)C3=O)CC1 [Example 116, 2-(4-acetylpiperazin-1-yl)-4-[(2R)-2-benzylpyrrolidin-1-yl]-6-isopropyl-5,6-dihydro-7H-pyrrolo[3,4-d]pyrimidin-7-one]
